In PMC13422867, “An orally available PfPKG inhibitor blocks Plasmodium’s infection of the liver” (PLOS Pathogens, 2026):
Where “and” joins values, the source holds several entries; their conditions need not be identical. Identical values can stand only once. Like-named read-outs stand apart in the source and are kept apart here.

Assays:
[1] = system: P. falciparum CamWT and CamC580Y; conditions: ring-stage assays; cited from earlier work
P. falciparum Dd2-B2 = assay: Asexual blood stage growth inhibition, SYBR Green I, 72 h; assay type: cell-based; conditions: Plasmodium falciparum, mean (standard error) of 3 biological replicates
Experimental: (§1) Asexual blood stage P. falciparum strains, including 3D7 and drug-resistant field isolates, were cultured using standard conditions in RPMI 1640 with 0.5% Albumax as described previously. EC₅₀ values were determined using a SYBR Green I fluorescence assay after 72 h of compound exposure. EC50 values were derived by nonlinear regression in GraphPad Prism version 10.

P. falciparum TM90_C2B = assay: as above; assay type: cell-based; conditions: Plasmodium falciparum, mean (standard error) of 3 biological replicates
Experimental: as §1

P. falciparum K1 = assay: as above; assay type: cell-based; conditions: Plasmodium falciparum, mean (standard error) of 3 biological replicates
Experimental: as §1

P. falciparum 7G8 = assay: as above; assay type: cell-based; conditions: Plasmodium falciparum, mean (standard error) of 3 biological replicates
Experimental: as §1

P. falciparum 3D7 = assay: as above; assay type: cell-based; conditions: Plasmodium falciparum, mean (standard error) of 3 biological replicates
Experimental: as §1

PfPKG [2] = conditions: cited from earlier work
CIT = molecular target: T1, CIT (Homo sapiens, UniProt O14578); assay: KdElect binding affinity assay
T1 construct: purchased Eurofins (DiscoverX)
Experimental: Off-target kinase inhibition was assessed using the DiscoverX scanMAX (Eurofins) panel at 1 µM compound concentration. Binding affinities of CIT, ROCK1 and ROCK2 were evaluated using the KdElect assay (Eurofins).

PfPKG [3] = molecular target: PfPKG (Plasmodium falciparum, UniProt Q8I719); assay: PfPKG enzyme inhibition; assay type: biochemical; conditions: for IC50: Table 7, spread in parentheses not defined
[4] = system: primary simian hepatocytes; assay: Cellular cytotoxicity, hepatocyte nuclear counts; assay type: cell-based
Source text: (§2) Primary cryopreserved hepatocytes were selected based on host-parasite compatibility: primary simian hepatocytes (lot OQB) for P. cynomolgi and human hepatocytes (lot BGW) for P. falciparum (BioIVT Inc., Baltimore, MD, USA). Cells were thawed according to the manufacturer’s protocol and seeded into 384-well collagen-coated assay plates (Greiner Bio-One, Monroe, NC, USA) using InVitroGro CP plating medium (BioIVT). Seeding densities were optimized for uniform monolayer formation, and hepatocytes were allowed to adhere for 24–48 hours before infection. Sporozoites were added at a 1:1.1 hepatocyte-to-sporozoite ratio within 48 hours post-seeding. Automated robotic systems were used for media changes and compound additions to ensure assay consistency and minimize variability associated with manual pipetting.
(§3) Test compounds (PfPKG inhibitors) and assay drug controls (KDU-691 and tafenoquine) were solubilized in DMSO or PBS and serially diluted into 8- or 12-point, 2- or 3-fold series, achieving final assay concentrations ranging from 20 µM to 0.019 µM. Compounds were introduced using a calibrated pin tool controlled by robotic arms (V&P Scientific), ensuring a 1:1000 dilution into assay wells. Media were replenished daily with fresh drug-containing HCM. Compounds were added 1-hour post-infection (p.i.) (day 0) and administered daily for 3 days. Cells were fixed on day 6 p.i. of P. falciparum culture and day 8 for P. cynomolgi infected culture, coinciding with liver stage schizont maturation.
(§4) High-content imaging was performed using the Operetta CLS system (Revvity) and image analysis was performed with Harmony software version 4.9 (Revvity, Waltham, MA, USA). Images were acquired at 10x or 20x magnification using DAPI and TRITC fluorescence channels. Following the established protocol, parasites were classified as hypnozoites or schizonts based on fluorescence intensity (mean and maximum), morphological features (cell roundness and size), and segmentation criteria. Hepatocyte nuclei were identified using Hoechst 33342 staining. Background signal was captured in uninfected, stained wells and subjected to the same parasite detection algorithm. Estimate erroneous parasite counts were then subtracted from infected well counts. Hepatocyte viability was determined by quantifying nuclear counts per well using Hoechst stain intensity thresholds. […] An in-house built Python-based image analysis script identified parasite objects using predefined fluorescence intensity thresholds. […] Parasite size was quantified by calculating the average object area (µm²) of validated parasite structures per well. […] Dose-response inhibition and IC50 were calculated relative to in-plate negative controls (DMSO-treated wells). […]

[5] = system: P. berghei sporozoites (PbLuc-GFP); assay: In vivo chemoprotective efficacy against sporozoite liver infection; parameters: species or system Plasmodium berghei in mice; conditions: Intravenous, 10 mg/kg x 3
P. cynomolgi schizont = assay: Schizont formation in primary simian hepatocytes, high-content imaging; assay type: cell-based, Plasmodium cynomolgi
Experimental: (§5) Liver stage antimalarial activity was evaluated using sporozoites from P. falciparum (NF54 strain) and P. cynomolgi bastianellii (B strain). P. falciparum-infected Anopheles stephensi mosquitoes were reared at WRAIR, while P. cynomolgi-infected Anopheles dirus mosquitoes were obtained from the Armed Forces Research Institute of Medical Sciences (AFRIMS), Thailand. Sporozoites were isolated by dissecting salivary glands under sterile conditions, followed by gentle mechanical disruption. Freshly isolated sporozoites were immediately used for hepatocyte infection.
as §2
as §3, with “Compounds were added 1-hour post-infection (p.i.) (day 0) and administered daily for 3 days. Cells were fixed on day 6 p.i. of P. falciparum culture and day 8 for P. cynomolgi infected culture, coinciding with liver stage schizont maturation.” left out
(§6) Cells were fixed using 4% paraformaldehyde for 20 minutes at room temperature, followed by three PBS washes, and stored at 4°C until further processing. Parasite detection was performed using species-specific primary antibodies, with P. cynomolgi parasites labeled using a mouse monoclonal anti-Plasmodium GAPDH antibody (1.6 μg/mL, European Malaria Reagent Repository) and P. falciparum parasites detected using a rabbit polyclonal anti-PfHSP70 antibody (1:70 dilution, LS Bio, USA). […]
(§7) High-content imaging was performed using the Operetta CLS system (Revvity) and image analysis was performed with Harmony software version 4.9 (Revvity, Waltham, MA, USA). Images were acquired at 10x or 20x magnification using DAPI and TRITC fluorescence channels. Following the established protocol, parasites were classified as hypnozoites or schizonts based on fluorescence intensity (mean and maximum), morphological features (cell roundness and size), and segmentation criteria. […]

[6] = system: P. berghei sporozoites (PbLuc-GFP); assay: In vivo chemoprotective efficacy against sporozoite liver infection; parameters: species or system Plasmodium berghei in mice
Experimental: In the first experiment, mice were administered three doses, intravenously (IV) or orally (PO), of compound (10 mg/kg) - two prior to sporozoite inoculation to block sporozoite invasion of hepatocytes and the third at 36 hpi to prevent egress of liver stages (Fig 3A). In vivo bioluminescent imaging (IVIS) of mice was utilized to detect and quantify relative parasitemia in the liver and flow cytometry was used to detect the appearance of blood stage parasites. Vehicle-treated mice were used as a negative control.
In vivo chemoprotective efficacy was evaluated using luciferase-expressing P. berghei ANKA sporozoites. […] Liver stage parasite burden was measured 42–48 h p.i. by bioluminescence imaging (IVIS Spectrum). Photon flux from the liver region was quantified using Living Image software. All animal procedures were approved by the Rutgers Institutional Animal Care and Use Committee (IACUC).

P. cynomolgi hypnozoite = assay: Hypnozoite formation in primary simian hepatocytes, high-content imaging; assay type: cell-based, Plasmodium cynomolgi
Experimental: as §5, §2
as §3, with “Compounds were added 1-hour post-infection (p.i.) (day 0) and administered daily for 3 days. Cells were fixed on day 6 p.i. of P. falciparum culture and day 8 for P. cynomolgi infected culture, coinciding with liver stage schizont maturation.” left out
as §6, §7

[7] = Cellular cytotoxicity, hepatocyte nuclear counts; assay type: cell-based, simian; conditions: simian, primary cryopreserved simian hepatocytes (lot OQB); cellular cytotoxicity
Source text: as §2, §3, §4

[8] = from IC50 ≈ Kd, ∆G = -RTln(Kd), 300K
[9] = Plasmodium cynomolgi, Hepatocyte

Sequence of PfPKG (Plasmodium falciparum, UniProt Q8I719) (Q8I719 whole entry): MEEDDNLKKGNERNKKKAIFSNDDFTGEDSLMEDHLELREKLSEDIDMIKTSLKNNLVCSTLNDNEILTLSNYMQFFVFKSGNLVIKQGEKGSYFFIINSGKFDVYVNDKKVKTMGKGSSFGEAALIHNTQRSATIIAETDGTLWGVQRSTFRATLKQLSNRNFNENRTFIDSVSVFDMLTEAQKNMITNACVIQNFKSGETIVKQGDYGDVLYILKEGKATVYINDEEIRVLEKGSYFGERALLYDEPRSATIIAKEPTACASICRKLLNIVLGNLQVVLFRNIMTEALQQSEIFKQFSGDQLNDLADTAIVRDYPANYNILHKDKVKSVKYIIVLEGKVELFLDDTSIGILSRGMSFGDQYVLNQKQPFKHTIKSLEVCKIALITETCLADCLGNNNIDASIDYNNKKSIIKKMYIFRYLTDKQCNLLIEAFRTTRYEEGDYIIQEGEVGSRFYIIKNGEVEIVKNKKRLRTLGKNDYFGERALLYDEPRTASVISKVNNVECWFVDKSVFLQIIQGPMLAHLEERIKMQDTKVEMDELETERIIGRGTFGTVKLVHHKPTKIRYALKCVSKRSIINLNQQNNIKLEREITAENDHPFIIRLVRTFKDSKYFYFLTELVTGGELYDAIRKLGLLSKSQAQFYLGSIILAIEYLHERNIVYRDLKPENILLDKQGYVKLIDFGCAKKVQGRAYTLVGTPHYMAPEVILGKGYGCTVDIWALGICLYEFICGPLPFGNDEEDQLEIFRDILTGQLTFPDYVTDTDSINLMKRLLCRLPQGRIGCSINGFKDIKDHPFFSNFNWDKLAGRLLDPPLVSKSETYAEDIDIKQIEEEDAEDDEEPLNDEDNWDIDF
T1 sequence (O14578 whole entry): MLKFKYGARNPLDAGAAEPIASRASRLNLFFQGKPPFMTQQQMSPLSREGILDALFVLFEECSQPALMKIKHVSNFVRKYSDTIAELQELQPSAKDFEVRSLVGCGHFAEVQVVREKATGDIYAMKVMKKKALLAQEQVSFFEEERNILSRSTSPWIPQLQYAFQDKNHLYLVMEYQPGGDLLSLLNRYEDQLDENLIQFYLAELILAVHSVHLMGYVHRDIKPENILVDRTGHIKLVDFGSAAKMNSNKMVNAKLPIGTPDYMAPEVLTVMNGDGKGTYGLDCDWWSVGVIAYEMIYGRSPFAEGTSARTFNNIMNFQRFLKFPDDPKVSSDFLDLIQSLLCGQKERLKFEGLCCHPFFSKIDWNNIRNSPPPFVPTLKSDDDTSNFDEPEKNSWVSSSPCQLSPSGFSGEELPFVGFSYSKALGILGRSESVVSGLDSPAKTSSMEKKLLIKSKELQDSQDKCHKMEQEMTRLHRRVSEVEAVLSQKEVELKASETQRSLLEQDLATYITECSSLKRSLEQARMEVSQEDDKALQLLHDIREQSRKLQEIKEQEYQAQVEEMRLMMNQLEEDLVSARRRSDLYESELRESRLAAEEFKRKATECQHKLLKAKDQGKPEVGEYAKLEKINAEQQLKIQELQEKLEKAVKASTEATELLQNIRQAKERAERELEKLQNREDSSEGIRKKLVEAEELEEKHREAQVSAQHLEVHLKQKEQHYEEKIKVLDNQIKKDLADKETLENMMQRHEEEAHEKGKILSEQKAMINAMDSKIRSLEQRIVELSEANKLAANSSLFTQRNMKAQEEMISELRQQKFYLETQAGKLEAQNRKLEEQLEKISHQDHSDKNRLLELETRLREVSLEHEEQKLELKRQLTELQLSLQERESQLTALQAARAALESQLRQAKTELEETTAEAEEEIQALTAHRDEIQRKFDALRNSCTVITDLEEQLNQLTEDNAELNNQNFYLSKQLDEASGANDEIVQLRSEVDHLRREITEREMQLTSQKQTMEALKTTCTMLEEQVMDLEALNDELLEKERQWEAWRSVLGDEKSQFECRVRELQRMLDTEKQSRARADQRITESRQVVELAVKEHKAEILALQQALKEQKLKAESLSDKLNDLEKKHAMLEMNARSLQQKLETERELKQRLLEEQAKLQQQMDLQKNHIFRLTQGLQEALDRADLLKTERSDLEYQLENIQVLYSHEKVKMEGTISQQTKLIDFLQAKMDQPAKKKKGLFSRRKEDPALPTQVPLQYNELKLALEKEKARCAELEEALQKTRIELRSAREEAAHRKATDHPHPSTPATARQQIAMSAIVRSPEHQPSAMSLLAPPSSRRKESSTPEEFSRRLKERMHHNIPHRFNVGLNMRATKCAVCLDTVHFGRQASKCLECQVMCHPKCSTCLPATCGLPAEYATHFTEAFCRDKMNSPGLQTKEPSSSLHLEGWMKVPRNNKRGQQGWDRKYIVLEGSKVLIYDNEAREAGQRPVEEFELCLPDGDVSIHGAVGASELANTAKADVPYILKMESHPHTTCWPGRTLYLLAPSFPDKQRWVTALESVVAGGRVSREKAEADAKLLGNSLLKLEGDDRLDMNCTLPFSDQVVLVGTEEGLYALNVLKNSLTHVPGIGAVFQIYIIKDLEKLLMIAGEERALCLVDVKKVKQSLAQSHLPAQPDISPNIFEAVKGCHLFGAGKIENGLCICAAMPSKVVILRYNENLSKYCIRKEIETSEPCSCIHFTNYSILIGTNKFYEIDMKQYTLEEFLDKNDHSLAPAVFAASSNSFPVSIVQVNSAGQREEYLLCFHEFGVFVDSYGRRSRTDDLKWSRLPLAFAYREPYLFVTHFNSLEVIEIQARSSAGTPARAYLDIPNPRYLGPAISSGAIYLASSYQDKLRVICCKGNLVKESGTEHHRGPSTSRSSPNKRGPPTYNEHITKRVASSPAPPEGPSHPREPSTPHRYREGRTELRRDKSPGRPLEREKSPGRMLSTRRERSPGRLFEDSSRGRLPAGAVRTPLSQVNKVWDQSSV

C[C@H]1CN(C)CC[C@@H]1c1cc(-c2ccncc2)c(-c2ccc(F)cc2)[nH]1.Cl.Cl [RUPB-59, 4-{5-[(3R,4S)-1,3-Dimethylpiperidin-4-yl]-2-(4-fluorophenyl)-1H-pyrrol-3-yl}pyridine Dihydrochloride]
IC50 against DHA-sensitive CamWT compared with DHA-resistant CamC580Y [1]: similar
IC50 (P. falciparum Dd2-B2): 353 nM
IC50 (P. falciparum TM90_C2B): 120 nM
IC50 (P. falciparum K1): 148 nM
IC50 (P. falciparum 7G8): 135 nM
IC50 (P. falciparum 3D7): 80 nM

C[C@@H]1CN(C)CC[C@H]1c1cc(-c2ccncc2)c(-c2ccc(F)cc2)[nH]1.Cl.Cl [RUPB-60, 4-{5-[(3S,4R)-1,3-Dimethylpiperidin-4-yl]-2-(4-fluorophenyl)-1H-pyrrol-3-yl}pyridine Dihydrochloride]
IC50 against DHA-sensitive CamWT compared with DHA-resistant CamC580Y [1]: similar
IC50 (P. falciparum Dd2-B2): 144 nM
IC50 (P. falciparum TM90_C2B): 80 nM
IC50 (P. falciparum K1): 81 nM
IC50 (P. falciparum 7G8): 28 nM
IC50 (P. falciparum 3D7): 50 nM
IC50 against PfPKG variants, RUPB-60 compared with RUPB-61 (PfPKG [2]): similar

CN1CCC(c2cc(-c3ccncc3)c(-c3ccc(F)c(C(C)(C)O)c3)[nH]2)CC1 [RUPB-69, 2-(2-Fluoro-5-(5-(1-methylpiperidin-4-yl)-3-(pyridin-4-yl)-1H-pyrrol-2-yl)phenyl)propan-2-ol]
Kd for CIT higher compared to RUPB-61 (CIT; range over RUPB-18, -34, -69): 5–125 fold
Kd (CIT; read-out: CIT Experimental Kd): 210 nM
improvement in PfPKG IC50 compared to RUPB-61 (PfPKG [3]): 10 fold
PfPKG (ΔG) (PfPKG [3]; [8]): -12.1 kcal/mol
PfPKG Experimental Binding (ΔG) (PfPKG [3]; [8]): -12.1 kcal/mol

COC(=O)c1cc(-c2[nH]c(C3CCN(C)CC3)cc2-c2ccncc2)ccc1F [RUPB-72, Methyl 2-fluoro-5-(5-(1-methylpiperidin-4-yl)-3-(pyridin-4-yl)-1H-pyrrol-2-yl)benzoate]
IC50 (PfPKG [3]): 17.2 nM

CCC(O)(CC)c1cc(-c2[nH]c(C3CCN(C)CC3)cc2-c2ccncc2)ccc1F [RUPB-73, 3-(2-Fluoro-5-(5-(1-methylpiperidin-4-yl)-3-(pyridin-4-yl)-1H-pyrrol-2-yl)phenyl)pentan-3-ol]
IC50 (PfPKG [3]): 256 nM

CN1CCC(c2cc(-c3ccncc3)c(-c3ccc(F)cc3)[nH]2)CC1 [TSP, reference compound]
CC50 [4]: 8500 nM
No. of mice patent by D21/ No. of mice inoculated [5]: 3/5
IC50 (P. cynomolgi schizont): 320 nM
mice that did not show blood stage parasites for 3 weeks pi ([6]; 3 intravenous doses, 10 mg/kg): 2/5
mice displaying liver infection at 44 hpi ([6]; IV, 10 mg/kg x 3, bioluminescent imaging): 3/5
Prepatent period mean ± sd ([6]; Intravenous, 10 mg/kg x 3, blood stages by flow cytometry, 10 mg/kg): 4.3 days and 4.3 ± 1.1 days
IC50 (P. cynomolgi hypnozoite): 400 nM

COc1cc(C)c2c(Oc3cccc(C(F)(F)F)c3)c(OC)cc(NC(C)CCCN)c2n1 (stereo not drawn) [Tafenoquine, tafenoquine]
CC50 at 3 days [7]: 3600 nM
IC50 (P. cynomolgi schizont; [9]): 41 nM
IC50 (P. cynomolgi hypnozoite; [9]): 85 nM
